# Results: patent US20240093191A1, “COMPOSITIONS AND METHODS FOR TREATING DISEASE ASSOCIATED WITH DUX4 OVEREXPRESSION” (RESEARCH INSTITUTE AT NATIONWIDE CHILDREN'S HOSPITAL, priority 2021, published 2024)
# How the values were obtained:
# mir-675-5p [1] = experiment: ddPCR of mir-675-5p in drug-treated DUX4-transfected HEK293 cells; type: cell-based, human; details: vs ethanol vehicle
# Procedure: (§1) Digital Droplet PCR (ddPCR). For mir-675 and mi405 constructs, RNA extraction was carried out as described for QPCR above. For cDNA synthesis, the TaqMan advanced cDNA synthesis kit (Thermo Fisher) was used and cDNA was prepared by following manufacturer's instructions. ddPCR was carried out using 1× ddPCR Supermix for probes (No dUTP) (Bio-Rad), 1× commercially available mir-675 advanced TaqMan probe, or a custom made mi405 advanced TaqMan probe (ThermoFisher) and 50 ng of cDNA. For DUX4 cDNA synthesis, the High-Capacity cDNA Reverse Transcription Kit (Applied Biosystems) was used according to manufacturer's instructions. Within the same cDNA reaction, 1×RT random hexamer primers and 25 pmoles of the Oligo(dT) primer were used to generate cDNA for DUX4 and DUX4-responsive biomarkers and for mouse Rpl13A, used as a reference gene. To quantify DUX4, the ddPCR reaction mixture (20 μL) contained 1× ddPCR Evagreen Supermix (Bio-Rad), 1 μM of forward and reverse DUX4 primers (Sharma et al., J Genet Syndr Gene Ther 2016 August; 7(4):303. doi: 10.4172/2157-7412.1000303. Epub 2016 Aug. 8), and 50 ng of cDNA. To quantify Rpl13A and DUX4-responsive biomarkers (Trim36 and Wfdc3), the 1× ddPCR Supermix for probes (No dUTP) and TaqMan specific probes were used for each of the genes. Droplets were generated using the Automatic Droplet generator QX200 AutoDG (Bio-Rad), the reactions were amplified in a C1000 Touch™ Thermal Cycler with 96-Deep Well Reaction Module (Bio-Rad). Cycling conditions were set up following the QX200 ddPCR Evagreen Supermix protocol. All assays are compatible with an annealing temperature of 58° C. Droplets were then read using the QX200 droplet reader (Bio-Rad). Finally, data were analyzed using the QuantaSoft analysis software (Bio-Rad). For quantification, each reaction of 20 μL was estimated to give at least 10,000 acceptable droplets.
# (§2) Three small molecule candidates (β-estradiol, a combination of β-estradiol+medroxyprogesterone acetate (MPA), and melatonin) were tested for their ability to upregulate mir-675-5p in HEK293 cells and in human myotubes. HEK293 cells normally express minimal amounts of mir-675. […] 24 hours after treatment, mir-675-5p expression was measured by Droplet Digital PCR (ddPCR).
# In FIG. 28, β-estradiol, medroxyprogesterone acetate (MPA) and melatonin increased mir-675 expression and reduced the expression of DUX4 and DUX4-induced biomarker TRIM43 in HEK293 cells. […] The effects of these drugs were evaluated by comparison to ethanol (vehicle)-treated cells. […] The quantification (percent change) of gene expression from HEK293 cells treated with β-estradiol, β-estradiol+MPA, or melatonin was measured using droplet digital PCR (ddPCR) and is reported in Table 3 set out below. […]
# DUX4 [2] = experiment: ddPCR of transfected DUX4 in drug-treated HEK293 cells; type: cell-based, human; details: vs ethanol vehicle
# Procedure: as §1, with “Cycling conditions were set up following the QX200 ddPCR Evagreen Supermix protocol. All assays are compatible with an annealing temperature of 58° C.” left out
# as §2, with “myotubes.” for “myotubes. HEK293 cells normally express minimal amounts of mir-675.”, “(ddPCR). […]” for “(ddPCR).”
# TRIM43 [3] = experiment: ddPCR of TRIM43 in drug-treated DUX4-transfected HEK293 cells; type: cell-based, human; details: for TRIM43 (% decrease): vs ethanol vehicle
# Procedure: as §1
# Three small molecule candidates (β-estradiol, a combination of β-estradiol+medroxyprogesterone acetate (MPA), and melatonin) were tested for their ability to upregulate mir-675-5p in HEK293 cells and in human myotubes. HEK293 cells normally express minimal amounts of mir-675. HEK293 cells were treated with (1) 20 μM β-estradiol alone; (2) 10 μM or 20 μM β-estradiol+MPA; or (3) 20 μM or 40 μM melatonin. 24 hours after treatment, mir-675-5p expression was measured by Droplet Digital PCR (ddPCR).
# In FIG. 28, β-estradiol, medroxyprogesterone acetate (MPA) and melatonin increased mir-675 expression and reduced the expression of DUX4 and DUX4-induced biomarker TRIM43 in HEK293 cells. Droplet Digital PCR (ddPCR) was carried out to measure mir-675-5p, DUX4 and TRIM43 levels. HEK293 cells were transfected with DUX4 and were treated with two drugs individually (i.e., β-estradiol and melatonin) or with a combination of β-estradiol and MPA at 10, 20 or 40 μM at the time of transfection. The effects of these drugs were evaluated by comparison to ethanol (vehicle)-treated cells. Numbers correspond to n=3 independent experiments (ANOVA, P<0.0001). The quantification (percent change) of gene expression from HEK293 cells treated with β-estradiol, β-estradiol+MPA, or melatonin was measured using droplet digital PCR (ddPCR) and is reported in Table 3 set out below. Anti-mir-675 is an antagomiR targeting the mature sequence of mir-675-5p, inhibiting its function as inhibitor of DUX4 gene expression. CMV.DUX4-mir-675Res is an expression plasmid encoding a DUX4 mutant sequence. […]
# mir-675-5p [4] = experiment: ddPCR of mir-675-5p in drug-treated FSHD myotubes; type: cell-based, human; details: 20 μM
# Description: (§3) Primary Cell Culture. 15A, 17A sand 18A FSHD human myoblasts and 15V control human myoblasts were provided by the UMMS Wellstone Center for FSHD and have been previously characterized [Jones et al., Hum. Mol. Genet. 21: 4419-4430 (2012)]. Previously immortalized 15A cell lines have a single 4qA permissive allele. […] 15V cell lines have two 4qB non-permissive alleles. Cells were propagated by feeding them every two days with new LHCN medium [4:1 DMEM:Medium 199 (Gibco) supplemented with 15% characterized FBS (Corning), 0.02 M HEPES (Thermo Fisher), 0.03 μg/mL ZnSO4 (Honeywell Fluka), 1.4 μg/mL Vitamin B12 (Sigma-Aldrich), 0.055 μg/mL dexamethasone (Sigma-Aldrich), 1% antibiotics/antimycotics (Gibco), 2.5 ng/mL hepatocyte growth factor (Millipore) and 10 ng/mL basic fibroblast growth factor (Millipore)]. For differentiation, myoblasts were switched to a differentiation medium [4:1 DMEM: Medium 199 (Gibco) supplemented with 15% KnockOut Serum Replacement (ThermoFisher Scientific), 2 mM L-glutamine (Gibco), 1% antibiotics/antimycotics (Gibco), 1 mM sodium pyruvate (Gibco) and 20 mM HEPES (ThermoFisher Scientific)] when cells were at >90% confluency. Before adding differentiation medium, cells were washed with PBS (Gibco). Cells were seeded with new differentiation medium every three days for up to 7 days. To detach cells, TrypLE™ Express, phenol red (ThermoFisher Scientific) was used.
# as §1
# (§4) Next, the effects of the three treatment regimens were tested on the expression of endogenous mir-675-5p, DUX4 and TRIM43 in 15A, 17A and 18A FSHD differentiated muscle cell lines (myotubes) (FIG. 29 and Table 4). […] Mol. Genet. 21: 4419-30 (2012)]. In FIG. 29, β-estradiol, medroxyprogesterone acetate (MPA) and melatonin increased mir-675 expression and reduced the expression of DUX4 and the DUX4-induced biomarker TRIM43 in three FSHD affected myotube lines. Droplet digital PCR (ddPCR) was used to measure mir-675-5p, DUX4 and TRIM43 levels in 15A (A), 17A (B) and 18A (C) FSHD affected myotubes five days after differentiation. […]
# DUX4 [5] = experiment: ddPCR of DUX4 in drug-treated FSHD myotubes; type: cell-based, human; details: for DUX4 (% decrease): 20 μM
# Description: as §3, §1, §4
# TRIM43 [6] = experiment: ddPCR of TRIM43 in drug-treated FSHD myotubes; type: cell-based, human; details: for TRIM43 (% decrease): 20 μM; for reduction of TRIM43 expression: 18A FSHD myotubes, 40 μM, added 4th day, collected 5th day of differentiation
# Description: as §3, §1, §4
# mir-675 = details: published gene expression studies; cited from earlier work
# ZSCAN4 = experiment: ddPCR of ZSCAN4 in drug-treated 18A FSHD myotubes; type: cell-based, human; details: 40 μM, added 4th day, collected 5th day of differentiation
# Procedure: 18A FSHD affected muscles cell lines were treated with increasing concentrations of Pyrazinamide or Sorafenib at the 4th day of differentiation into myotubes. Cells were collected at the 5th day of differentiation. RNA was extracted and ddPCR gene expression analysis on DUX4, TRIM43 and ZSCAN4 was carried out. As a result, 40 μM of Pyrazinamide reduced TRIM43 and ZSCAN4 expression by 35±7% (ANOVA, P=0.0378, N=3 independent experiments) and 42±6% (ANOVA, P=0.0043, N=3 independent experiments), respectively (FIG. 35). Sorafenib reduced DUX4, TRIM43 and ZSCAN4 expression in a dose dependent manner, where it reached maximum inhibition when used at a concentration of 40 μM. At the latter, Sorafenib reduced DUX4, TRIM43 and ZSCAN4 expression by 40±10% (ANOVA, P=0.0486, N=3 independent experiments), 70±4% (ANOVA, P=0.0003, N=3 independent experiments) and 68±3% (ANOVA, P=0.0001, N=3 independent experiments), respectively (FIG. 35).
structure (smiles),measurement,setting,value
"COc1ccc2[nH]cc(CCNC(C)=O)c2c1 [Melatonin, melatonin]",mir-675-5p (% increase),mir-675-5p [1]; 20 μM,229 ± 53%
same,mir-675-5p (% increase),mir-675-5p [1]; 40 μM,246 ± 53%
same,DUX4 (% decrease),DUX4 [2]; 20 μM,90 ± 01%
same,DUX4 (% decrease),DUX4 [2]; 40 μM,93 ± 01%
same,+anti-mir-675 (300 nM) TRIM43 (% increase),"TRIM43 [3]; 20 μM, HEK293, co-transfected anti-mir-675 300 nM",21 ± 01%
same,TRIM43 (% decrease),"TRIM43 [3]; 20 μM, HEK293",52 ± 01%
same,TRIM43 (% decrease),"TRIM43 [3]; 40 μM, HEK293",58 ± 01%
same,+CMV.DUX4-mir-675Res TRIM43 (% decrease),"TRIM43 [3]; 40 μM, HEK293 transfected with CMV.DUX4-mir-675Res",0.1 ± 16%
same,mir-675-5p (% increase),"mir-675-5p [4]; 15A 5DD myotubes, N = 6","44 ± 16 | *, %"
same,mir-675-5p (% increase),"mir-675-5p [4]; 17A 5DD myotubes, N = 3","48 ± 09 | **, %"
same,mir-675-5p (% increase),"mir-675-5p [4]; 18A 5DD myotubes, N = 3","154 ± 59 | *, %"
same,DUX4 (% decrease),"DUX4 [5]; 15A 5DD myotubes, N = 6","88 ± 40 | **, %"
same,DUX4 (% decrease),"DUX4 [5]; 17A 5DD myotubes, N = 3","55 ± 09 | *, %"
same,DUX4 (% decrease),"DUX4 [5]; 18A 5DD myotubes, N = 3","38 ± 17 | *, %"
same,TRIM43 (% decrease),"TRIM43 [6]; 15A 5DD myotubes, N = 6","75 ± 45 | *, %"
same,TRIM43 (% decrease),"TRIM43 [6]; 17A 5DD myotubes, N = 3","30 ± 12 | *, %"
same,TRIM43 (% decrease),"TRIM43 [6]; 18A 5DD myotubes, N = 3","70 + 15 | ***, %"
same,mir-675 expression,mir-675,mir-675 was induced
"NC(=O)c1cnccn1 [Pyrazinamide, pyrazine-2-carboxamide]",reduction of TRIM43 expression,TRIM43 [6],35±7%
same,reduction of ZSCAN4 expression,ZSCAN4,42±6%
same,mir-675 expression,mir-675,upregulated mir-675 expression
"CNC(=O)c1cc(Oc2ccc(NC(=O)Nc3ccc(Cl)c(C(F)(F)F)c3)cc2)ccn1 [Sorafenib, 4-[4-[[4-chloro-3-(trifluoromethyl)phenyl]carbamoylamino]phenoxy]-N-methylpyridine-2-carboxamide]",reduction of DUX4 expression,"DUX4 [5]; 18A FSHD myotubes, 40 μM, added 4th day, collected 5th day of differentiation",40±10%
same,reduction of TRIM43 expression,TRIM43 [6],70±4%
same,reduction of ZSCAN4 expression,ZSCAN4,68±3%
same,mir-675 expression,mir-675,upregulated mir-675 expression
